We go through twelve compounds from US9040527B2, “Pyrimidinediamine kinase inhibitors” (Rigel Pharmaceuticals, Inc., priority 2008, dated 2015).

Assay [1] deals with T1, PLK1 (Homo sapiens, UniProt P53350). As to the kind of experiment: Cellular PLK1 assay in K562 cells overexpressing CDC25C. It is filed as cell-based. The arrangement: endogenous in cells; host or cells: K562 (human chronic myelogenous leukemia) overexpressing CDC25C, nocodazole-arrested. The settings on record: nocodazole arrested, cdc25c p-Ser198 readout. The method, then: (§1) Inhibition of PLK1 was measured by quantifying phosphorylation of PLK1 substrates using chemiluminescent and fluorogenic probes. The protocols for these assays are provided below.
1. Culturing of K562 Cells
Human chronic myelogenous leukemia K562 cells (American Tissue Culture Collection) overexpressing CDC25C, were grown in Growth Medium having the following composition: Iscove Dulbecco's Modified Eagle's Medium (“Iscove DMEM”, Mediatech/Cellgro, Cat. #10-013-CV), 10% Fetal Bovine Serum (“FBS”, SAFC Biosciences, Cat. #12106-500M), and 1% penicillin/streptomycin (“pen-strep”, Mediatech/Cellgro, Cat. #30-002-CI). The cells were plated in 96 well round bottom tissue culture plates (Fisher, Costar* Cell Culture plates, Cat. #07-200-95) at 100,000 cells per 50 μL of Growth Medium per well. Nocodazole (Sigma, Cat. # M1404) was added to the growth media to arrest the cells in the G2 or M phase, at 333 nM concentration. The cells were incubated with nocodazole for 18 hours at 37° C. prior to addition of tested compounds.
2. Treatment of Cells with the Tested Compounds
Solutions of tested compounds in DMSO at different concentrations were prepared using serial dilutions. Each compound was tested at 8 concentration points, 10 μM, 3.3 μM, 1.11 μM, 0.37 μM, 0.12 μM, 0.04 μM, 0.014 μM, 0.005 μM, duplicate replicates.
Two controls were performed: “DMSO alone” control in which nocodazole and DMSO were present but no compounds were added, and “nocodazole alone” control, in which only nocodazole was present, but neither DMSO nor compounds were added.
The solutions of compounds were prepared by diluting 10 mM compound 1:1 in DMSO (5 μL 10 mM compound and 5 μL DMSO), followed by 1:3 serial dilutions of compound in DMSO performed by diluting 3 μL of higher concentration compound solution serially into 6 μL DMSO to give 3-fold dilutions. Next, 3 μL of each compound solution at each concentration was transferred to 750 μL of Growth Medium. In “DMSO alone” control 3 μL of DMSO alone was added to 750 μL of Growth Medium.
After the diluted compounds were mixed well in the Growth Medium, 50 μL of each compound solution in DMSO/Growth Medium was transferred to each well of the 96-plate containing cells in 50 μL of Growth Medium/Nocodazole.
The cells and compounds were incubated for 120 minutes at 37° C., in an atmosphere containing 5% CO2.
3. Fixation and Permeabilization of the Cells
After the cells were incubated with compounds, the cells were spun down at 1,000 rpm for 5 minutes at 4° C. and supernatants were removed by flicking the plates. Cells were then washed with 200 μl of ice cold PBS, spun down again and supernatants removed. Cells were then fixed and permeabilized by addition of 100 μL/well of Fixation and Permeabilization Solution (1× buffer provided in BD Biosciences Cytofix/Cytoperm™ Fixation/Permeabilization kit, Cat. #554714) and incubation for 20 minutes at room temperature. The fixative was then removed by centrifugation (5 minutes at 2,000 rpm), and plates were flicked to remove the fixative and washed twice, each time with 200 μL/well BD Perm/Wash buffer (10× concentrate provided in BD Biosciences Cytofix/Cytoperm™ Fixation/Permeabilization kit, Cat. #554714, 1× buffer prepared by dilution in distilled H2O).
Cells were spun down at 1,000 rpm for 5 minutes at 4° C. Supernatants were removed by flicking the plates. A solution of a primary antibody specific for cdc25cp-Ser198 was prepared by diluting Rabbit cdc25c (Ser198) antibody (Cell Signaling, #9529L) 1:50 in a Fluorescence Activated Cell Sorting (“FACS”) Buffer (2% FBS in PBS). The cell pellets were resuspended in 50 μL of the primary antibody solution. 50 μL of FACS buffer was added to unstained controls. Staining was allowed to proceed overnight at room temperature.
The plates were then washed by addition of 200 μL of FACS Buffer to each well, were centrifuged and the supernatant was removed. […]

Assay [2] concerns the target T1, PLK1. Put plainly: In vitro PLK1 ELISA assay (biochemical). Set-up: purchased Cell Signalling 7728. The method, then:
as §1
In Vitro PLK1 ELISA Assay
1. Preparation of Assay Plates.
Costar 96-well black or white solid flat high binding plates (Fisher Scientific, Catalog No. 07-200-591) were coated with Neutravidin (Pierce, Catalog No. 31000) using the following protocol. A 0.01 mg/mL solution of Neutravidin in 1× Phosphate Buffered Saline (“PBS”, Cellgro/Mediatech, Catalog No. 21-040-CV) was added to each well (100 μL/well) and was incubated for 18-24 hours at 4° C. The plates were then washed with 1× Phosphate Buffer Saline—Tween (“PBST”, Calbiochem, Catalog No. 524653) buffer using a plate washer. The plates were treated with bovine serum albumin (“BSA”, Sigma, Catalog No. A7906) to block non-specific binding sites, by adding a 2% BSA solution in 1×PBST buffer to each well (100 μL/well) and incubating the plates for 1 hour at room temperature. The plates were then washed with 1×PBST buffer using a plate washer.
2. PLK1-Catalyzed Phosphorylation Reaction
An aqueous buffer solution A having the following composition was prepared:
20 mM HEPES (Cellgro/Mediatech, Catalog No. 25-060Ci), pH 7.2;
5 mM MgCl2 (Sigma, Catalog No. M2393);
2 mM MnCl2.4H2O (EM Biosciences, Catalog No. MX0185-2);
1 mM Dithiothreitol (“DTT”, Fluka, Catalog No. B4184).
Next, the substrate solution B was prepared by adding 2.6 μL of 10 mM ATP (Sigma, Catalog No. A7699) and 6.4 μL of the 1 mM PLK1 substrate, CHK2-derived peptide Biotin-SSLETVSTQELYSIP (custom synthesized at Anaspec) SEQ ID: No. 1, to 4691 μL of the buffer solution A. The concentration of the ATP in solution B is 5.44 μM (1.36×); the concentration of the PLK1 substrate in solution B is 1.36 μM (1.36×).
Compound solutions C of varying concentrations for each compound were prepared by dissolving each compound in dimethylsulfoxide (DMSO, Sigma, Catalog No. D2650) to varying concentrations, followed by adding 2 μL of each solution to 38 μL of the buffer solution A, thereby forming 10× compound solutions in 5% DMSO.
A PLK1 solution D was prepared by adding 8.4 μL of 100 μg/mL PLK1 (Cell Signalling, Catalog No. 7728) to 1392 μL of the buffer solution A, thereby forming 0.6 μg/mL (6×) PLK1 solution.
The aqueous 1.36× substrate solution B was added to each well (44 μL/well) resulting in binding of the substrate to the plate via biotin/neutravidin interaction. Then 10× compound solutions C for each tested compound at each tested concentration were added to each well (6 μL/well). Next, 6×PLK1 solution D was added to each well (10 μL/well).
The final concentrations of tested compounds in each well were 10 μM, 3.3 μM, 1.1 μM, 0.36 μM, 0.12 μM, 0.04 μM, 0.014 μM, and 0.005 μM.
The obtained reaction mixtures were incubated in the wells for 45 minutes at room temperature, allowing PLK1-catalyzed phosphorylation of the substrate to proceed. The plates were then washed with 1×PBST solution using a plate washer, such that the bound phosphorylated or unphosphorylated substrate remains attached to the wells upon washing.
The washed plates were developed by treating the plates with a primary antibody that is specific for the phosphorylated substrate, followed by treatment with a secondary antibody that is specific for the primary antibody, and that is capable of catalyzing a reaction that results in a chemiluminescent readout. The chemiluminescent readout was used to quantify the substrate phosphorylation, and, consequently, to determine IC50 values for PLK1 inhibition, and was measured using a luminometer (Perkin Elmer/Wallac plate reader). The plate development protocol is described below.
A mixed antibody solution E was prepared by adding 1 μL of the primary antibody, rabbit p-CHK2(T68) (Rockland, Catalog No. 401280), and 1 μL of the secondary antibody, HRP-goat anti-rabbit IgG (Jackson Immunoresearch Catalog No. 111-035-003) to 10000 μL of 0.1% BSA in 1×PBST buffer. […]
(In general: ELISA stands for enzyme-linked immunosorbent assay.)

Where [3] appears, read: ELISA, CHK2-derived peptide substrate, read-out: PLK1 IC50 (μM) biochemical assay.
Where [4] appears, read: read-out: IC50 in biochemical in vitro PLK1 ELISA assay (less than 10 μM).

A word on the IC50: it is the concentration at which inhibition is half-maximal.

T1 sequence (P53350 whole entry): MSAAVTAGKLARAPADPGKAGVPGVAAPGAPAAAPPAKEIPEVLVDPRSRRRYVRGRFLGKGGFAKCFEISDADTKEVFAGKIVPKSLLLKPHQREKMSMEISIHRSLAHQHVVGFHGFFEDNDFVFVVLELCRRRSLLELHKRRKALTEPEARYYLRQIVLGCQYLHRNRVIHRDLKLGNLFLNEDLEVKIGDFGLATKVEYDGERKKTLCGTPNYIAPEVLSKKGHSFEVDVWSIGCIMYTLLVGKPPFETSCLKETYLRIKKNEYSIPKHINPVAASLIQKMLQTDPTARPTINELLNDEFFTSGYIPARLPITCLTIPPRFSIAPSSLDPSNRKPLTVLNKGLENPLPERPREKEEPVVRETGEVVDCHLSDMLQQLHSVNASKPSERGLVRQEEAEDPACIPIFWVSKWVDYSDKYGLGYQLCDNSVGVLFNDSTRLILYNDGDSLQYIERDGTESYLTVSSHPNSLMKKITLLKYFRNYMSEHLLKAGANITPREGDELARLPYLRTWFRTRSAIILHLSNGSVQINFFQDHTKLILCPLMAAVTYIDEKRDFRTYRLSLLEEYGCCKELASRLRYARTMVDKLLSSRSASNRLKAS

Consider `CN1CCN(c2cccc(Nc3ncc(F)c(Nc4ccc5c(c4)NC(=O)CO5)n3)c2)CC1` [compound 17, 6-(5-fluoro-2-(3-(4-methylpiperazin-1-yl)phenylamino)pyrimidin-4-ylamino)-2H-benzo[b][1,4]oxazin-3(4H)-one], for which the IC50 against PLK1 [1] was 0.5 to 5 µM; on PLK1 [2] (setting [3]) it was < 0.5 µM; on PLK1 [2] (read-out: IC50 in biochemical ELISA assay (less than 0.01 μM)), < 0.01 µM; at PLK1 [2] (setting [4]) it was < 10 µM.
Take `O=C1COc2ccc(Nc3nc(Nc4cccc(N5CCNCC5)c4)ncc3F)cc2N1` [compound 18, 6-(5-fluoro-2-(3-(piperazin-1-yl)phenylamino)pyrimidin-4-ylamino)-2H-benzo[b][1,4]oxazin-3(4H)-one]: the values for the IC50 against PLK1 [1], on PLK1 [2] (setting [3]) and at PLK1 [2] (setting [4]) were 0.5 to 5 µM, < 0.5 µM and < 10 µM, respectively.
On to `Cc1cnc(Nc2ccc(N3CCN(C)CC3)cc2)nc1Nc1ccc2c(n1)NC(=O)C(C)(C)O2` [compound 88, 2,2-dimethyl-6-(5-methyl-2-(4-(4-methylpiperazin-1-yl)phenylamino)pyrimidin-4-ylamino)-2H-pyrido[3,2-b][1,4]oxazin-3(4H)-one], for which, at PLK1 [1], the concentration for half-maximal inhibition (IC50) is ≥ 10 µM.
Still for that read-out and setting: with `CCN1CCN(c2ccc(Nc3ncc(C)c(Nc4ccc5c(n4)N(C)C(=O)CO5)n3)cc2)CC1` [compound 91, 6-(2-(4-(4-ethylpiperazin-1-yl)phenylamino)-5-methylpyrimidin-4-ylamino)-4-methyl-2H-pyrido[3,2-b][1,4]oxazin-3(4H)-one] the figure was ≥ 10 µM; with `CCN1CCN(c2ccc(Nc3ncc(C)c(Nc4ccc5c(n4)NC(=O)C(C)(C)O5)n3)cc2)CC1` [compound 92, 6-(2-(4-(4-ethylpiperazin-1-yl)phenylamino)-5-methylpyrimidin-4-ylamino)-2,2-dimethyl-2H-pyrido[3,2-b][1,4]oxazin-3(4H)-one], ≥ 10 µM.
On the same count and under the same terms, with `CCN1CCN(c2ccc(Nc3ncc(C)c(Nc4ccc5c(n4)N(C)C(=O)C(C)(C)O5)n3)cc2)CC1` [compound 94, 6-(2-(4-(4-ethylpiperazin-1-yl)phenylamino)-5-methylpyrimidin-4-ylamino)-2,2,4-trimethyl-2H-pyrido[3,2-b][1,4]oxazin-3(4H)-one] the figure was ≥ 10 µM; with `Cc1cc(Nc2ncc(C)c(Nc3ccc4c(n3)N(C)C(=O)C(C)(C)O4)n2)ccc1N1CCN(C)CC1` [compound 98, 2,2,4-trimethyl-6-(5-methyl-2-(3-methyl-4-(4-methylpiperazin-1-yl)phenylamino)pyrimidin-4-ylamino)-2H-pyrido[3,2-b][1,4]oxazin-3(4H)-one], ≥ 10 µM.
Same read-out and setting: next, `CCOC(=O)N1CCN(c2ccc(Nc3ncc(F)c(Nc4ccc5c(n4)NCCO5)n3)cc2)CC1` [compound 163, ethyl 4-(4-(4-(3,4-dihydro-2H-pyrido[3,2-b][1,4]oxazin-6-ylamino)-5-fluoropyrimidin-2-ylamino)phenyl)piperazine-1-carboxylate]: ≥ 10 µM; `CC(=O)N1CCN(c2cccc(Nc3ncc(F)c(Nc4ccc5c(n4)NCCO5)n3)c2)CC1` [compound 164, 1-(4-(3-(4-(3,4-dihydro-2H-pyrido[3,2-b][1,4]oxazin-6-ylamino)-5-fluoropyrimidin-2-ylamino)phenyl)piperazin-1-yl)ethanone]: ≥ 10 µM.
Regarding `CCOC(=O)N1CCN(c2cccc(Nc3ncc(F)c(Nc4ccc5c(n4)NCCO5)n3)c2)CC1` [compound 165, ethyl 4-(3-(4-(3,4-dihydro-2H-pyrido[3,2-b][1,4]oxazin-6-ylamino)-5-fluoropyrimidin-2-ylamino)phenyl)piperazine-1-carboxylate], the IC50 against PLK1 [1] is ≥ 10 µM.
On the same count and under the same terms, with `CN1CCN(c2ccc(Nc3ncc(F)c(Nc4ccc5c(n4)NCCO5)n3)cc2)CC1` [compound 166, N4-(3,4-dihydro-2H-pyrido[3,2-b][1,4]oxazin-6-yl)-5-fluoro-N2-(4-(4-methylpiperazin-1-yl)phenyl)pyrimidine-2,4-diamine] the figure was ≥ 10 µM.
For `Cc1cnc(Nc2ccc(N3CCN(C)CC3)nc2)nc1Nc1ccc2c(c1)N(C)C(=O)C(C)(C)O2` [compound 202, 2,2,4-trimethyl-6-(5-methyl-2-(6-(4-methylpiperazin-1-yl)pyridin-3-ylamino)pyrimidin-4-ylamino)-2H-benzo[b][1,4]oxazin-3(4H)-one], the IC50 on PLK1 [1] was ≥ 10 µM.
